Assay results reported in PubChem BioAssay (NCI).
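Assay format: 96-well plates, 48-hour exposure. GI50: concentration for 50% inhibition of growth. TGI denotes the concentration required for complete inhibition of growth.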

What was measured:
Test in all cases: DTP human tumour cell line panel, 48 h
[1] = test system: OVCAR-4 ovarian
[2] = test system: MOLT-4 leukemia
[3] = test system: SF-268 CNS
[4] = test system: BT-549 breast
[5] = test system: SW-620 colon
[6] = test system: MDA-MB-435
[7] = test system: HL-60(TB) leukemia
[8] = test system: HCT-15 colon
[9] = test system: U251 CNS
[10] = test system: HOP-92 NSCLC

| Compound | GI50 [1] | TGI [1] | GI50 [2] | TGI [2] | GI50 [3] | TGI [3] | GI50 [4] | TGI [4] | GI50 [5] | TGI [5] | GI50 [6] | TGI [6] | GI50 [7] | TGI [7] | GI50 [8] | TGI [8] | GI50 [9] | TGI [9] | TGI [10] | GI50 [10] |
| --- | --- | --- | --- | --- | --- | --- | --- | --- | --- | --- | --- | --- | --- | --- | --- | --- | --- | --- | --- | --- |
| O=C(Nc1cccc(-n2cc(-c3ccncc3)c(-c3cc(O)cc(Cl)c3)n2)c1)c1ccc(N2CCOCC2)c(C(F)(F)F)c1 | > 100 µM | > 100 µM | 1.11 µM | 4.38 µM | 8.51 µM | > 100 µM | 4.21 µM | > 100 µM | 2.83 µM | 7.06 µM | 2.05 µM | > 100 µM | 0.81 µM | 3.04 µM | 0.559 µM | 11.3 µM | 1.4 µM | 6.3 µM | – | – |
| O=C(NC12CC3CCC1CC(C3)C2)[C@@H]1CCCN1C(=O)OCc1ccccc1 (some centres undefined) | – | – | – | > 100 µM | – | > 100 µM | – | – | – | > 100 µM | – | – | – | 73.3 µM | – | > 100 µM | – | > 100 µM | 71.5 µM | – |
| O=C1CC(c2ccccc2)Oc2ccccc21 (centres undefined) | – | > 100 µM | – | 34.4 µM | – | > 100 µM | – | 42.1 µM | – | – | – | > 100 µM | – | 49.5 µM | – | > 100 µM | – | > 100 µM | 62.8 µM | – |
| COc1cc2oc(-c3ccc(O)cc3)cc(=O)c2c(O)c1C1OC(CO)C(O)C(O)C1O (centres undefined) | – | > 100 µM | – | > 100 µM | – | > 100 µM | – | – | – | > 100 µM | – | – | – | > 100 µM | – | > 100 µM | – | > 100 µM | – | – |
| COC(=O)/C=C(/C(=O)OC)C1(C)c2cc(C(=O)OC)c(C(=O)OC)c(N)c2C(=N)N1c1ccccc1 (centres undefined) | – | – | – | 46.2 µM | – | 41 µM | – | – | – | – | – | – | – | 32.6 µM | – | > 100 µM | – | 48.9 µM | 43.6 µM | – |
| C[C@]12Cc3cn[nH]c3C(=O)C1CC[C@@H]1C2CC[C@@]2(C)C1CC[C@@H]2O (some centres undefined) | – | > 100 µM | – | > 100 µM | – | > 100 µM | – | – | – | > 100 µM | – | – | – | > 100 µM | – | > 100 µM | – | > 100 µM | > 100 µM | – |
| COc1cc2c(cc1Nc1nc(N3CCc4ccccc43)c3cc[nH]c3n1)N(C(=O)CN(C)C)CC2 | 2.84 µM | 9.04 µM | 1.88 µM | 4.79 µM | 5.03 µM | 10.3 µM | 8.38 µM | 15.7 µM | 0.35 µM | 0.8 µM | 2.64 µM | 7.91 µM | 1.18 µM | 6.82 µM | 1.25 µM | 2.81 µM | 4.67 µM | 9.83 µM | – | – |
| COc1cc(CNc2nc3cc(N)cc(N)c3nc2-c2ccccc2)cc(OC)c1 | 0.014 µM | 0.974 µM | 3.02 µM | > 100 µM | 5.32 µM | > 100 µM | 9.7 µM | > 100 µM | 4.45 µM | > 100 µM | – | – | 3.84 µM | > 100 µM | 19.3 µM | > 100 µM | 5.08 µM | > 100 µM | 3.31 µM | 1.15 µM |
| CSC1=Nc2c(c(C)c(C)n2COC(CO)CO)C2=NC(=O)CN12 | > 100 µM | > 100 µM | > 100 µM | > 100 µM | > 100 µM | > 100 µM | > 100 µM | > 100 µM | > 100 µM | > 100 µM | > 100 µM | > 100 µM | – | – | > 100 µM | > 100 µM | > 100 µM | > 100 µM | > 100 µM | > 100 µM |
| N#C/C(=C\c1cc(OCc2ccccc2)c(OCc2ccccc2)cn1)C(N)=O | – | > 100 µM | – | 52.4 µM | – | > 100 µM | – | – | – | > 100 µM | – | – | – | 36.9 µM | – | > 100 µM | – | > 100 µM | > 100 µM | – |
| O=[N+]([O-])c1ccccc1C1SCc2nc3ccccc3n21 (centres undefined) | – | > 100 µM | – | > 100 µM | – | > 100 µM | – | – | – | > 100 µM | – | – | – | > 100 µM | – | – | – | > 100 µM | > 100 µM | – |
| COC(=O)C1C(C(=O)OC)C2C(=O)C3C(C(=O)OC)C(C(=O)OC)C3C(=O)C12 (centres undefined) | – | > 100 µM | – | > 100 µM | – | > 100 µM | – | – | – | > 100 µM | – | – | – | > 100 µM | – | – | – | > 100 µM | > 100 µM | – |
| COC(=O)OC1C(O[C@H]2C[C@H]3[C@@H]4CC=C5C[C@@H](O)CC[C@]5(C)[C@H]4CC[C@]3(C)[C@H]2[C@H](C)C(=O)CCC(C)C)OCC(O)C1OC1OCC(O)C(O)C1OC(=O)c1ccc(OC)cc1 (some centres undefined) | 0.0823 µM | > 27.5 µM | 0.00695 µM | 0.0178 µM | 0.0137 µM | 2.24 µM | < 0.00275 µM | 3.45 µM | 0.00877 µM | 0.277 µM | 0.00874 µM | 0.0868 µM | – | – | 0.137 µM | 1.26 µM | 0.00297 µM | 3.91 µM | 1.87 µM | 0.0492 µM |
| CC1(C)OC[C@@H]([C@@]2(CO[Si](c3ccccc3)(c3ccccc3)C(C)(C)C)CC=CC(=O)O2)O1 | 16.1 µM | > 100 µM | 8.94 µM | > 100 µM | 10.5 µM | 45.8 µM | 4.46 µM | 19 µM | 4.55 µM | 46.7 µM | 4.98 µM | 31.2 µM | – | – | 5.86 µM | 58.6 µM | 5.94 µM | 25.4 µM | 26.2 µM | 6.72 µM |
| COc1cc(Nc2cnc3ccc(C(F)(F)F)cc3n2)cc(OC)c1OC | – | – | – | > 100 µM | – | > 100 µM | – | – | – | > 100 µM | – | – | – | > 100 µM | – | > 100 µM | – | > 100 µM | > 100 µM | – |
| CC1=NN(C(=O)Cc2ccccc2)C(=O)/C1=C\c1ccc(O)cc1 | – | > 100 µM | – | > 100 µM | – | > 100 µM | – | – | – | > 100 µM | – | – | – | > 100 µM | – | > 100 µM | – | > 100 µM | > 100 µM | – |
| COC(=O)CCC(NC(=S)N/N=C/c1cccs1)C(=O)OC (centres undefined) | – | > 100 µM | – | – | – | > 100 µM | – | – | – | > 100 µM | – | – | – | > 100 µM | – | > 100 µM | – | > 100 µM | > 100 µM | – |
| O=C1[C@@H]2C(c3c(Cl)cccc3Cl)=NO[C@@H]2C(=O)N1c1ccc(Cc2ccc(N3C(=O)[C@H]4C(c5c(Cl)cccc5Cl)=NO[C@H]4C3=O)cc2)cc1 | – | > 100 µM | – | > 100 µM | – | > 100 µM | – | – | – | > 100 µM | – | – | – | > 100 µM | – | > 100 µM | – | > 100 µM | > 100 µM | – |
| COc1ccc(CNc2cnc3ccc(N)cc3n2)cc1 | – | > 100 µM | – | > 100 µM | – | > 100 µM | – | – | – | > 100 µM | – | – | – | > 100 µM | – | > 100 µM | – | – | – | – |
| Cc1cc([N+](=O)[O-])c(C)c2c1[nH]c1ccc(Cl)cc12 | – | > 100 µM | – | > 100 µM | – | > 100 µM | – | – | – | > 100 µM | – | – | – | > 100 µM | – | > 100 µM | – | – | – | – |
